According to patent US20120301551A1, “COMPOUNDS AND COMPOSITIONS FOR TREATING NEURONAL DEATH OR NEUROLOGICAL DYSFUNCTION” (Neurotech Pharmaceuticals Co., Ltd., priority 2005, published 2012):
Where two headings read alike, the source gives them in different places.

Assays:
cerebral cortical cell = assay: anti-oxidant effect: neuron protecting effect against Fe+2 (50 uM FeCl2); assay type: cell-based; conditions: cerebral cortical cell treated by 50 uM FeCl2
Description: After cerebral cortical cell was treated by 50 uM FeCl2 to induce oxidative stress, the anti-oxidant effects of many compounds were evaluated. Results were shown as IC50 (uM) (Item A of Table 3 below).
(§1) In the Table 3, A, B and C mean neuron protecting effect against Fe^+2, suppressing effect on production of NO and suppressing effect on production of beta-amyloid, respectively. The term “ND” means “Not determined.”

[1] = test system: BV-2 cell line (production of NO); assay: anti-inflammatory effect: suppression of LPS-induced production of NO; assay type: cell-based; conditions: BV-2 cell line treated by LPS; for IC50: read-out: IC50 (uM) B: suppressing effect on production of NO
Description: After BV-2 cell line was treated by LPS to induce production of NO, the anti-inflammatory effects of many compounds were evaluated. Results were shown as IC50 (uM) (Item B of Table 3 below).
as §1

beta-amyloid (Aβ42) = assay: suppression of beta-amyloid (Aβ42) production in CHO cells (ELISA); assay type: cell-based, Chinese hamster
Description: The suppressing effects of many drug candidates on production of beta-amyloid were evaluated in CHO cell line having the increased level of beta-amyloid. Results were shown as IC50 (uM) (Item C of Table 3 below).
as §1
Cells were treated with increasing concentrations of various chemicals in Chinese hamster ovary (CHO) cells stably transfected with human wild APP695 and the PS1ΔExon9, and analyzed Aβ42 levels in culture medium by colorimetric sandwich ELISA kit (BIOSOURCE, Camarillo, Calif.). In CHO cells, IC50 of Chemical—01-08 on Aβ42 lowering effect was 20-100 uM (Table 4).

[2] = Cricetulus griseus, CHO cell line having the increased level of beta-amyloid, read-out: IC50 (uM) C: suppressing effect on production of beta-amyloid
[3] = CHO cell line having the increased level of beta-amyloid
[4] = CHO cell line having the increased level of beta-amyloid, read-out: IC50 (uM) C: suppressing effect on production of beta-amyloid
[5] = Cricetulus griseus, CHO cells stably transfected with human wild APP695 and PS1ΔExon9, culture medium, ELISA, read-out: Aβ42 lowering effect (IC50)

Compound: O=C(O)c1cc(NCCc2ccc(C(F)(F)F)cc2)ccc1O [Compound 01]
- IC50 (cerebral cortical cell; Neuron): 0.099 µM
- IC50 ([1]; Mus musculus): 24.3 µM
- IC50 (beta-amyloid (Aβ42); [2]): 19.6 µM

Compound: O=C(O)c1cc(NCCc2ccccc2)ccc1O [Compound 02]
- IC50 (cerebral cortical cell; Neuron): 1.04 µM
- IC50 ([1]; Mus musculus): > 100 µM

Compound: O=C(O)c1cc(NCCc2ccccc2C(F)(F)F)ccc1O [Compound 03]
- IC50 (cerebral cortical cell; Neuron): 0.1 µM
- IC50 ([1]; Mus musculus): 33 µM

Compound: O=C(O)c1cc(NCCc2cccc(C(F)(F)F)c2)ccc1O [Compound 04]
- IC50 (cerebral cortical cell; Neuron): 0.08 µM
- IC50 ([1]; Mus musculus): 26.1 µM

Compound: COc1ccc(CCNc2ccc(O)c(C(=O)O)c2)cc1 [Compound 05]
- IC50 (cerebral cortical cell; Neuron): 0.11 µM
- IC50 ([1]; Mus musculus): 60.3 µM

Compound: O=C(O)c1cc(NCCc2cc(F)ccc2F)ccc1O [Compound 06]
- IC50 (cerebral cortical cell; Neuron): 0.27 µM
- IC50 ([1]; Mus musculus): 82.2 µM

Compound: O=C(O)c1cc(NCCc2ccccc2Cl)ccc1O [Compound 07]
- IC50 (cerebral cortical cell; Neuron): 0.11 µM
- IC50 ([1]; Mus musculus): 60.8 µM
- IC50 (beta-amyloid (Aβ42); [2]): 19.1 µM

Compound: O=C(O)c1cc(NCCc2cccc(Cl)c2)ccc1O [Compound 08]
- IC50 (cerebral cortical cell; Neuron): 0.23 µM
- IC50 ([1]; Mus musculus): 76.5 µM

Compound: O=C(O)c1cc(NCCc2ccccc2Br)ccc1O [Compound 09]
- IC50 (cerebral cortical cell; Neuron): 0.14 µM
- IC50 ([1]; Mus musculus): 78.8 µM

Compound: O=C(O)c1cc(NCCc2cccc(Br)c2)ccc1O [Compound 10]
- IC50 (cerebral cortical cell; Neuron): 0.23 µM
- IC50 (uM) B: suppressing effect on production of NO [1]: No

Compound: Cc1ccc(CCNc2ccc(O)c(C(=O)O)c2)cc1 [Compound 11]
- IC50 (cerebral cortical cell; Neuron): 0.24 µM
- IC50 ([1]; Mus musculus): 23.9 µM

Compound: O=C(O)c1cc(NCCc2c(F)cccc2F)ccc1O [Compound 12]
- IC50 (cerebral cortical cell; Neuron): 0.36 µM
- IC50 ([1]; Mus musculus): 62.7 µM

Compound: COc1ccccc1CCNc1ccc(O)c(C(=O)O)c1 [Compound 13]
- IC50 (cerebral cortical cell; Neuron): 0.27 µM
- IC50 ([1]; Mus musculus): 94 µM

Compound: O=C(O)c1cc(NCCc2ccc(Cl)cc2)ccc1O [Compound 14]
- IC50 (cerebral cortical cell; Neuron): 0.11 µM
- IC50 ([1]; Mus musculus): > 100 µM

Compound: COc1cccc(CCNc2ccc(O)c(C(=O)O)c2)c1 [Compound 15]
- IC50 (cerebral cortical cell; Neuron): 0.32 µM
- IC50 (uM) B: suppressing effect on production of NO [1]: No

Compound: O=C(O)c1cc(NCCc2ccc(F)cc2F)ccc1O [Compound 17]
- IC50 (cerebral cortical cell; Neuron): 0.21 µM
- IC50 ([1]; Mus musculus): > 300 µM

Compound: O=C(O)c1cc(NCCc2ccc(Cl)c(Cl)c2)ccc1O [Compound 18]
- IC50 (cerebral cortical cell; Neuron): 0.1 µM
- IC50 ([1]; Mus musculus): 63.2 µM

Compound: O=C(O)c1cc(NCCc2cccc(F)c2)ccc1O [Compound 19]
- IC50 (cerebral cortical cell; Neuron): 0.26 µM
- IC50 ([1]; Mus musculus): 82.6 µM

Compound: O=C(O)c1cc(NCCc2ccccc2[N+](=O)[O-])ccc1O [Compound 20]
- IC50 (cerebral cortical cell; Neuron): 0.4 µM
- IC50 ([1]; Mus musculus): 12.5 µM

Compound: O=C(O)c1cc(NCCc2ccc(F)c(F)c2)ccc1O [Compound 21]
- IC50 (cerebral cortical cell; Neuron): 0.32 µM
- IC50 ([1]; Mus musculus): 23.7 µM
- IC50 (beta-amyloid (Aβ42); [2]): 68 µM

Compound: O=C(O)c1cc(NCCc2cc(F)cc(F)c2)ccc1O [Compound 22]
- IC50 (cerebral cortical cell; Neuron): 0.25 µM
- IC50 ([1]; Mus musculus): 135 µM

Compound: O=C(O)c1cc(NCCc2ccccc2F)ccc1O [Compound 23]
- IC50 (cerebral cortical cell; Neuron): 0.11 µM
- IC50 ([1]; Mus musculus): 34.9 µM

Compound: O=C(O)c1cc(NCCc2ccc(Cl)cc2Cl)ccc1O [Compound 24]
- IC50 (cerebral cortical cell; Neuron): 0.031 µM
- IC50 ([1]; Mus musculus): 40.8 µM
- IC50 (beta-amyloid (Aβ42); [2]): 29.2 µM

Compound: Cc1ccccc1CCNc1ccc(O)c(C(=O)O)c1 [Compound 25]
- IC50 (cerebral cortical cell; Neuron): 0.07 µM
- IC50 ([1]; Mus musculus): 18.6 µM
- IC50 (uM) C: suppressing effect on production of beta-amyloid (beta-amyloid (Aβ42); [3]): No

Compound: O=C(O)c1cc(NCCc2cccc(C(F)(F)F)c2F)ccc1O [Compound 26]
- IC50 (cerebral cortical cell; Neuron): 0.13 µM
- IC50 ([1]; Mus musculus): 61.7 µM
- IC50 (beta-amyloid (Aβ42); [2]): > 100 µM

Compound: O=C(O)c1cc(NCCc2cc(C(F)(F)F)cc(C(F)(F)F)c2)ccc1O [Compound 27]
- IC50 (cerebral cortical cell): 0.044 µM
- IC50 [1]: 6.25 µM
- IC50 (beta-amyloid (Aβ42); [4]): 109 µM

Compound: O=C(O)c1cc(NCCCc2ccc(F)cc2)ccc1O [Compound 28]
- IC50 (cerebral cortical cell; Neuron): 0.12 µM
- IC50 ([1]; Mus musculus): 20.3 µM

Compound: CCOc1ccc(CCNc2ccc(O)c(C(=O)O)c2)cc1 [Compound 29]
- IC50 (cerebral cortical cell; Neuron): 0.18 µM
- IC50 ([1]; Mus musculus): 42.2 µM

Compound: Cc1cccc(CCNc2ccc(O)c(C(=O)O)c2)c1 [Compound 30]
- IC50 (cerebral cortical cell; Neuron): 0.39 µM
- IC50 ([1]; Mus musculus): 23.6 µM
- IC50 (uM) C: suppressing effect on production of beta-amyloid (beta-amyloid (Aβ42); [3]): No

Compound: O=C(O)c1cc(NCCc2ccc(F)cc2C(F)(F)F)ccc1O [Compound 31]
- IC50 (cerebral cortical cell; Neuron): 0.25 µM
- IC50 ([1]; Mus musculus): 4.08 µM

Compound: O=C(O)c1cc(NCCCc2ccccc2)ccc1O [Compound 32]
- IC50 (cerebral cortical cell; Neuron): 0.29 µM
- IC50 ([1]; Mus musculus): 85.4 µM

Compound: O=C(O)c1cc(NCCc2ccc(F)c(C(F)(F)F)c2)ccc1O [Compound 33]
- IC50 (cerebral cortical cell): 0.036 µM
- IC50 [1]: 31.1 µM
- IC50 (beta-amyloid (Aβ42); [4]): > 100 µM

Compound: O=C(O)c1cc(NCCc2cc(F)cc(C(F)(F)F)c2)ccc1O [Compound 34]
- IC50 (cerebral cortical cell; Neuron): 0.13 µM
- IC50 ([1]; Mus musculus): 98.8 µM
- IC50 (uM) C: suppressing effect on production of beta-amyloid (beta-amyloid (Aβ42); [3]): No

Compound: O=C(O)c1cc(NCCCc2ccc(F)c(F)c2)ccc1O [Compound 35]
- IC50 (cerebral cortical cell; Neuron): 0.035 µM
- IC50 ([1]; Mus musculus): 67.5 µM
- IC50 (beta-amyloid (Aβ42); [2]): > 100 µM

Compound: O=C(O)c1cc(NCCc2ccc(C(F)(F)F)cc2F)ccc1O [Compound 36]
- IC50 (cerebral cortical cell; Neuron): 0.06 µM
- IC50 ([1]; Mus musculus): 99.8 µM
- IC50 (beta-amyloid (Aβ42); [2]): > 100 µM

Compound: O=C(O)c1cc(NCCc2cc(F)ccc2C(F)(F)F)ccc1O [Compound 37]
- IC50 (cerebral cortical cell; Neuron): 0.27 µM
- IC50 ([1]; Mus musculus): > 100 µM

Compound: O=C(O)c1cc(NCCc2cc(C(F)(F)F)ccc2F)ccc1O [Compound 38]
- IC50 (cerebral cortical cell; Neuron): 0.069 µM
- IC50 ([1]; Mus musculus): 35 µM
- IC50 (uM) C: suppressing effect on production of beta-amyloid (beta-amyloid (Aβ42); [3]): No

Compound: O=C(O)c1cc(NCCc2ccc(F)cc2)ccc1O [Compound 39]
- IC50 (cerebral cortical cell; Neuron): 0.31 µM
- IC50 (uM) B: suppressing effect on production of NO [1]: No

Compound: O=C(O)c1cc(NCCCCc2ccccc2)ccc1O [Compound 40]
- IC50 (cerebral cortical cell; Neuron): 0.073 µM
- IC50 ([1]; Mus musculus): > 100 µM
- IC50 (uM) C: suppressing effect on production of beta-amyloid (beta-amyloid (Aβ42); [3]): No

Compound: Cc1ccc(CCCNc2ccc(O)c(C(=O)O)c2)cc1 [Compound 41]
- IC50 (cerebral cortical cell; Neuron): 0.11 µM
- IC50 ([1]; Mus musculus): 26.5 µM
- IC50 (uM) C: suppressing effect on production of beta-amyloid (beta-amyloid (Aβ42); [3]): No

Compound: O=C(O)c1cc(NCCCc2ccc(C(F)(F)F)cc2)ccc1O [Compound 42]
- IC50 (cerebral cortical cell; Neuron): 0.062 µM
- IC50 ([1]; Mus musculus): 6.7 µM
- IC50 (beta-amyloid (Aβ42); [2]): 68.3 µM

Compound: O=C(O)c1cc(NCCCc2ccc(Cl)c(Cl)c2)ccc1O [Compound 43]
- IC50 (cerebral cortical cell; Neuron): 0.04 µM
- IC50 ([1]; Mus musculus): 51.8 µM
- IC50 (beta-amyloid (Aβ42); [2]): 111 µM

Compound: O=C(O)c1cc(NCCCc2ccc(Cl)cc2Cl)ccc1O [Compound 44]
- IC50 (cerebral cortical cell; Neuron): 0.12 µM
- IC50 ([1]; Mus musculus): 51 µM

Compound: O=C(O)c1cc(NCCc2ccc(C(F)(F)F)c(F)c2)ccc1O [Compound 45]
- IC50 (cerebral cortical cell; Neuron): 0.1 µM
- IC50 ([1]; Mus musculus): 20.7 µM

Compound: O=C(O)c1cc(NCCc2ccc(O)cc2)ccc1O [Compound 47]
- IC50 (cerebral cortical cell): 0.32 µM
- IC50 [1]: 11.5 µM

Compound: O=C(O)c1cc(NCCc2ccc(OC(F)(F)F)cc2)ccc1O [chemical 16, 2-Hydroxy-5-[2-(4-trifluoromethoxy-phenyl)-ethylamino]-benzoic acid]
- IC50 (beta-amyloid (Aβ42); [5]): 67.5 µM

Compound: O=C(O)c1cc(NCCc2ccc(F)c(F)c2)ccc1O [chemical 21, 5-[2-(3,4-Difluoro-phenyl)-ethylamino]-2-hydroxy-benzoic acid]
- IC50 (beta-amyloid (Aβ42); [5]): 68 µM

Compound: O=C(O)c1cc(NCCc2ccc(Cl)cc2Cl)ccc1O [chemical 24, 5-[2-(2,4-Dichloro-phenyl)-ethylamino]-2-hydroxy-benzoic acid]
- IC50 (beta-amyloid (Aβ42); [5]): 29.2 µM

Compound: O=C(O)c1cc(NCCCc2ccc(Cl)c(Cl)c2)ccc1O [chemical 43, 5-[3-(3,4-Dichloro-phenyl)-propylamino]-2-hydroxy-benzoic acid]
- IC50 (beta-amyloid (Aβ42); [5]): 111 µM
